Experimental data from patent US5760036A, “Aminediol protease inhibitors” (E. R. Squibb & Sons, Inc., priority 1995, dated 1998).
Counter-ions that a name gives are not always drawn. Like-named read-outs stand apart in the source and are kept apart here.

How the values were obtained:
[1] = target: T1, HIV protease (Human immunodeficiency virus type 1 group M subtype B, UniProt P04585); assay: HIV Protease Assay; format: biochemical
T1 construct: and purified protease
Outline: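 Purified protease cleaved 450 μM octapeptide substrate in 50 mM sodium acetate pH 5.5 with 100 μg/ml BSA for 30 minutes at 37° C; product analyzed by reverse-phase HPLC at UV220 after H3PO4 quench. Inhibitors tested at final 10 μM with 4% DMSO.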

[2] = tested on: RF strain of HIV (CEM-SS cells); assay: Cell Culture Anti-HIV Activity (cell viability, formazan); format: cell-based; conditions: CEM-SS cells, RF strain of HIV, multiplicity of infection 0.04, 6 days at 37° C., 450 nm, read-out: HIV (CEM Cells) IC50
Outline: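 CEM-SS cells (5000/well) infected with HIV RF at MOI 0.04, exposed to half-log serial compound dilutions, incubated 6 days at 37° C. Viability read by tetrazolium reduction to formazan, absorbance 450 nm. IC50 is the concentration raising formazan in infected cells to 50% of uninfected, drug-free cells.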

[3] = pH 5.5, 10 μM inhibitor, 4% DMSO, 450 μM substrate, pH 5.5, 30 minutes at 37° C., RP-HPLC, read-out: HIV Protease % Inhibition at 10 μM
[4] = Human immunodeficiency virus 1, CEM-SS, 144 h
[5] = pH 5.5, read-out: HIV Protease % Inhibition at 10 μM

CC(C)(C)OC(=O)N[C@@H](Cc1ccccc1)[C@H](O)CNC[C@@H](O)[C@H](Cc1ccccc1)NC(=O)OC1COC1 [Compound 319]
inhibition at 10 µM [1, 3]: 93%
IC50 [2, 4]: 1370 nM

CC(C)(C)OC(=O)N[C@@H](Cc1ccccc1)[C@H](O)CNC[C@@H](O)[C@H](Cc1ccccc1)NC(=O)COc1ccccc1 (relative stereo) [Compound 72, 1S-[1R*,2S*(2S*,3R*)]]-[2-Hydroxy-3-[[2-hydroxy-3-[(phenoxyacetyl)amino]-4-phenylbutyl]amino]-1-(phenylmethyl)propyl]carbamic acid, 1,1-dimethylethylester]
inhibition at 10 µM [1, 3]: 51%
IC50 [2, 4]: > 3200 nM

CC(C)(C)OC(=O)N[C@@H](Cc1ccccc1)[C@H](O)CNC[C@@H](O)[C@H](Cc1ccccc1)NC(=O)C1(O)CCCC1(C)C (single isomer, unassigned; isomer b) [Compound 322, [1S-[1R*,2S*(2S*,3R*)]]-[3-[[3-[[2,2-Dimethyl-1-hydroxycyclopentyl)-carbonyl]amino]-2-hydroxy-4-phenylbutyl]amino]-2-hydroxy-1-(phenylmethyl)-propyl]carbamic acid, 1,1-dimethylethyl ester, isomer B]
HIV Protease % Inhibition at 10 μM [1]: 100%
IC50 [2]: 20 nM

CN1CCN(CCOc2ccc(C[C@H](NC(=O)OC(C)(C)C)[C@H](O)CNC[C@@H](O)[C@H](Cc3ccccc3)NC(=O)OC(C)(C)C)cc2)C1=O [Compound 363, [1S-[1R*,2S*(2S*,3R*)]]-[3-[[3-[[(1,1-Dimethylethoxy)carbonyl]amino]-2-hydroxy-4-[4-[2-(3-methyl-2-oxo-1-imidazolidinyl)-ethoxy]phenyl]butyl]amino]-2-hydroxy-1-(phenylmethyl)propyl]carbamic acid, 1,1-dimethylethyl ester]
inhibition at 10 µM [1, 5]: 99%
IC50 [2, 4]: 40 nM

COCCCCOc1ccc(C[C@H](NC(=O)OC(C)(C)C)[C@H](O)CNC[C@@H](O)[C@H](Cc2ccccc2)NC(=O)OC(C)(C)C)cc1 [Compound 300, [1S-[1R*,2S*(2S*,3R*)]]-[3-[[3-[[(1,1-Dimethylethoxy)-carbonyl]amino]-2-hydroxy-4-[4-(4-methoxybutoxy)phenyl]butyl]amino]-2-hydroxy-1-(phenylmethyl)propyl]carbamic acid, 1,1-dimethylethyl ester]
inhibition at 10 µM [1, 3]: 99%
IC50 [2, 4]: 30 nM

COC(=O)N[C@H](C(=O)N[C@@H](Cc1ccccc1)[C@H](O)CNC[C@@H](O)[C@H](Cc1ccccc1)NC(=O)OC(C)(C)C)C(C)(C)C (relative stereo) [Compound 246, [1R*,2S*(2S*,3R*)]-N-[3-[[3-[[(1,1-Dimethylethoxy)carbonyl]amino]-2-hydroxy-4-phenylbutyl]amino]-2-hydroxy-1-(phenylmethyl)propyl]-N^2-(2-methoxycarbonyl)-3-methyl-L-valinamide]
inhibition at 10 µM [1, 3]: 100%
IC50 [2, 4]: 40 nM

CC(C)[C@H](NC(=O)[C@H](C)N)C(=O)N[C@@H](Cc1ccccc1)[C@H](O)CNC[C@@H](O)[C@H](Cc1ccccc1)NC(=O)OC(C)(C)C [Compound 96, [S-[1R*,2S*(2S*,3R*)]-N-]3-[[3-[[(1,1-Dimethylethoxy)carbonyl]amino]-2-hydroxy-4-phenylbutyl]amino]-2-hydroxy-1(phenylmethyl)propyl]-N^2-(L-alanyl)-L-valinamide, fumarate salt]
inhibition at 10 µM [1, 3]: 100%
IC50 [2, 4]: > 7600 nM

CNC(=O)N[C@H](C(=O)N[C@@H](Cc1ccccc1)[C@H](O)CNC[C@@H](O)[C@H](Cc1ccccc1)NC(=O)OC(C)(C)C)C(C)(C)C (relative stereo) [Compound 263, [1R*,2S*(2S*,3R*)]-N-[3-[[3-[[(1,1-Dimethylethoxy)carbonyl]amino]-2-hydroxy-4-phenylbutyl]amino]-2-hydroxy-1-(phenylmethyl)propyl]-N^2-[(methylamino)carbonyl]-3-methyl-L-valinamide]
inhibition at 10 µM [1, 3]: 98%
IC50 [2, 4]: 340 nM

CC(C)(C)OC(=O)N[C@@H](Cc1ccccc1)[C@H](O)CNC[C@@H](O)[C@H](Cc1ccc(O)cc1)NC(=O)OC(C)(C)C [Compound 21, [1S-[1R*,2S*(2S*,3R*)]]-3-[[3-[[(1,1-Dimethylethoxy)carbonyl]amino]-2-hydroxy-4-(4-hydroxyphenyl)butyl]amino]-2-hydroxy-1-(phenylmethyl)propyl]carbamic acid, 1,1-dimethylethyl ester]
inhibition at 10 µM [1, 3]: 99%
IC50 [2, 4]: 90 nM

COC(=O)N[C@H](C(=O)N[C@@H](Cc1ccccc1)[C@H](O)CNC[C@@H](O)[C@H](Cc1ccccc1)NC(=O)OC(C)(C)C)C(C)C (relative stereo) [Compound 247, [1R*,2S*,3R*)]-N-[3-[[3-[[(1,1-Dimethylethoxy)carbonyl]amino]-2-hydroxy-4-phenylbutyl]amino]-2-hydroxy-1-(phenylmethyl)propyl]-N^2-(methoxycarbonyl)-L-valinamide]
inhibition at 10 µM [1, 3]: 99%
IC50 [2, 4]: 100 nM

CC(C)(C)OC(=O)N[C@@H](Cc1ccccc1)[C@H](O)CNC[C@@H](O)[C@H](Cc1ccccc1)NC(=O)OCc1cccnc1 [Compound 256, [R-(R*,S*)]-[Iminobis[2-hydroxy-1-(phenylmethyl)-3,1-propanediyl)]biscarbamic acid. 1,1-dimethylethyl-3-pyridinylmethyl ester]
inhibition at 10 µM [1, 3]: 88%
IC50 [2, 4]: 1500 nM

CC(C)(C)OC(=O)N[C@@H](Cc1ccccc1)[C@H](O)CNC[C@@H](O)[C@H](Cc1ccccc1)NC(=O)C(C)(O)C(C)(C)CO (single isomer, unassigned; isomer a) [Compound 356, [1S-[1R*,2S*(2S*,3R*)]]-[3-[3-[2,4-Dihydroxy-2,3,3-trimethyl-1-oxobutyl)amino]-2-hydroxy-4-phenylbutyl]amino]-2-hydroxy-1-(phenylmethyl)propyl]carbamic acid, 1,1-dimethylethyl ester, isomer A]
inhibition at 10 µM [1, 5]: 99%
IC50 [2, 4]: 120 nM

CC(C)(CO)OC(=O)N[C@@H](Cc1ccccc1)[C@H](O)CNC[C@@H](O)[C@H](Cc1ccccc1)NC(=O)[C@](C)(O)C(C)(C)C [Compound 333, [1S-[1R*,2S*[2S*3R*(S*)]]]-[3-[[3-[(2-Hydroxy-2,3,3-trimethyl-1-oxobutyl)amino]-2-hydroxy-4-phenylbutyl]amino-2-hydroxy-1-(phenylmethyl)propyl]carbamic acid, 2-hydroxy-1,1-dimethylethyl ester]
inhibition at 10 µM [1, 3]: 100%
IC50 [2, 4]: 150 nM

CC(C)[C@H](NC(=O)Cc1nc2ccccc2[nH]1)C(=O)N[C@@H](Cc1ccccc1)[C@H](O)CNC[C@@H](O)[C@H](Cc1ccccc1)NC(=O)OC(C)(C)C (relative stereo) [Compound 105, S-[1R*,2S*(2S*,3R*)]-N-[3-[[3-[[(1,1-Dimethylethoxy)carbonyl]amino]-2-hydroxy-4-phenylbutyl]amino]-2-hydroxy-1-(phenylmethyl)-propyl]-N^2-(1H-benzimidazol-2-ylacetyl)-L-valinamide]
inhibition at 10 µM [1, 3]: 99%
IC50 [2, 4]: 1600 nM

CC(C)(C)OC(=O)N[C@@H](Cc1ccccc1)[C@H](O)CNC[C@@H](O)[C@H](Cc1ccncc1)NC(=O)OC(C)(C)C [Compound 30, [1S-[1R*,2S*(2S*,3R*)]]-[3-[[3-[[(1,1-Dimethylethoxy)-carbonyl]amino]-2-hydroxy-4-phenylbutyl]amino]-2-hydroxy-1-(4-pyridinylmethyl)propyl]carbamic acid, 1,1-dimethylethyl ester]
inhibition at 10 µM [1, 3]: 97%
IC50 [2, 4]: 500 nM

CC(C)[C@H](NC(=O)C(N)Cc1ccccc1O)C(=O)N[C@@H](Cc1ccccc1)[C@H](O)CNC[C@@H](O)[C@H](Cc1ccccc1)NC(=O)OC(C)(C)C (relative stereo) [Compound 211, [1R*,2S*(2S*,3R*)]-N-[3-[[3-[[(1,1-Dimethylethoxy)carbonyl]amino]-2-hydroxy-4-phenylbutyl]amino]-2-hydroxy-1-(phenylmethyl)propyl]-N^2-(2-hydroxyoxyphenylalanyl)-L-valinamide, fumarate (2:3) salt]
inhibition at 10 µM [1, 3]: 99%
IC50 [2, 4]: 900 nM

CC(C)(C)OC(=O)N[C@@H](Cc1ccccc1)[C@H](O)CNC[C@@H](O)[C@H](Cc1ccccc1)NC(=O)[C@H](O)C(C)(C)C [Compound 334, [1S-[1R*,2S*[2S*,3R*(S*)]]]-[3-[[3-[(2-Hydroxy-3,3-dimethyl-1-oxobutyl)amino]-2-hydroxy-4-phenylbutyl]amino]-2-hydroxy-1-(phenylmethyl)propyl]carbamic acid, 1,1-dimethylethyl ester]
inhibition at 10 µM [1, 3]: 99%
IC50 [2, 4]: 50 nM

CC(C)[C@H](NC(=O)OCc1ccccc1)C(=O)N(C)[C@@H](Cc1ccccc1)[C@H](O)CNC[C@@H](O)[C@H](Cc1ccccc1)NC(=O)OC(C)(C)C [Compound 134, [S-[1R*,2S*(2S*,3R*)]]-N-[3-[[3-[[(1,1-Dimethylethoxy)carbonyl]amino]-2-hydroxy-4-phenylbutyl]amino]-2-hydroxy-1-(phenylmethyl)-propyl]-N-methyl-N^2-[(phenylmethoxy)carbonyl]-L-valinamide]
inhibition at 10 µM [1, 3]: 87%
IC50 [2, 4]: > 5000 nM
